Ends that are not written are not given here.
What was measured:
Experiment in all cases: Plate bactericidal experiment (colony counting)
Type in all cases: cell-based
Conditions in all cases: 22-712 μg/ml tested
[1] = system: Escherichia coli (E. coli) ATCC 25922
Description: (§1) The Escherichia coli (E. coli) ATCC 25922, Staphylococcus aureus (S. aureus) ATCC 25923, and Acinetobacter baumannii (A. baumannii) ATCC 19606 used in our experiments were preserved in our laboratory. Bacteria were cultured in LB liquid medium at 37°C for 8–12 h. Then, the cultures were centrifuged at 4,000 rpm for 5 min and washed three times with PBS. Eventually, the bacterial solutions were diluted to different concentrations for testing (10–1.00 × 10^9 cfu/ml). First, 100 μl of CWR11-AuNC solution was added to an E. coli or S. aureus suspension (1 × 10^5 cfu/ml). After 1 h of incubation, 10 μl of bacterial suspension was inoculated on an LB solid agar plate and placed at 37°C for 24 h before the number of colonies was counted. In addition, different concentrations of CWR11-AuNCs were added to the bacterial suspensions (McFarland turbidity of 0.5) and placed at 37°C for 18–24 h. Bacterial viability was determined by measuring the absorbance at 600 nm.

[2] = system: Staphylococcus aureus (S. aureus) ATCC 25923
Description: as §1

[3] = system: Acinetobacter baumannii (A. baumannii) ATCC 19606

CWFWKWWRRRRR [CWR11]
significantly reduced the activity: effect on activity of E. coli [1] | effect on activity of S. aureus [2] | effect on activity of A. baumannii [3]

— publication PMC9589054, “One-step synthesized antimicrobial peptide-functionalized gold nanoclusters for selective imaging and killing of pathogenic bacteria” (Frontiers in Microbiology, 2022)
